Patent publication US20030206882A1, “Fatty acid sanitizer” (priority 2002, published 2003)

What was measured:
[1] = tested on: Staphylococcus aureus ATCC 6538; assay: Sanitizing Efficacy/Germicidal and Detergent Sanitizing Action of Disinfectants; format: cell-based; settings: summary of Table 7, heptanoic acid without coupler
Description: Sanitizing Efficacy/Germicidal and Detergent Sanitizing Action of Disinfectants—Final Action
This test measures the sanitizing efficacy against Staphylococcus aureus ATCC 6538 and Escherichia coli ATCC 11229 with a 10% milk challenge at a 15 second exposure time. A 10% milk challenge is achieved by adding 90 ml of the test formulation to 10 ml of milk, mixing, and removing 1 ml for a final volume of 99 ml.

[2] = Compatibility/stability of the aqueous composition; format: physicochemical; settings: heptanoic acid alone versus with sulfonate coupler

CCCCCCC(=O)O [heptanoic acid]
antimicrobial efficacy (in words) [1]: satisfactory antimicrobial efficacy | compatibility (stability) of the composition (in words) [2]: less compatibility
